“And” between values parts separate entries of the source, which are not always exact repeats. Equal entries are not always repeated.
Test system: 388556-164-R-J1-PDC complex spheroid viability
Test: Anticancer human tumor 388556-164-R-J1-PDC patient-derived colon adenocarcinoma cell line growth inhibition [RAS]
Details: for viability, T/C: stronger effect = lower value
Summary of the method: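 Tumour cells grown as complex spheroids with HUVEC endothelial cells and mesenchymal stem cells, treated with RAS pathway inhibitor combinations. Each agent spans half-log steps from near clinical Cmax, or 10 microM where Cmax is unknown.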
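Further: spheroids exposed to compound for 7 days before readout.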
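Wherever viability, T/C is given: 100% = DMSO vehicle control luminescence.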

How did the IC50 (curve of first compound, second compound 0.000949 µM) turn out when C=CC(=O)N1CCN(c2nc(OCC3CCCN3C)nc3c(F)c(-c4nc(N)cc(C)c4C(F)(F)F)c(Cl)cc23)C(C)C1 (stereo unspecified) + CCn1c(-c2cc(N3CCN(C)CC3)cnc2C(C)OC)c2c3cc(ccc31)-c1csc(n1)CC(NC(=O)C1CC1C)C(=O)N1CCCC(N1)C(=O)OCC(C)(C)C2 was run?
Its IC50 is over 1000 nM.

What about the IC50 (curve of first compound, second compound 0.003 µM) of the same compound?
Its IC50 is over 1000 nM.

And the IC50 (curve of first compound, second compound 0.00949 µM)?
The IC50 was over 1000 nM.

What about the IC50 (curve of first compound, second compound 0.03 µM) of the same compound?
Its IC50 is over 1000 nM.

And the IC50 (curve of first compound, second compound 0.0949 µM)?
Its IC50 is under 3.16 nM.

And the IC50 (curve of first compound, second compound 0.3 µM)?
Its IC50 is under 3.16 nM.

What about the viability, T/C (second compound 0.000949 µM, first compound 0.00316 µM) of the same compound?
The viability, T/C was 90.9%.

What about the viability, T/C (second compound 0.000949 µM, first compound 0.01 µM) of the same compound?
The viability, T/C was 97.7%.

And the viability, T/C (second compound 0.000949 µM, first compound 0.0316 µM)?
The viability, T/C was 86.2%.

And the viability, T/C (second compound 0.000949 µM, first compound 0.1 µM)?
The viability, T/C was 91.5%.

What about the viability, T/C (second compound 0.000949 µM, first compound 0.316 µM) of the same compound?
The viability, T/C was 92.1%.

What about the viability, T/C (second compound 0.000949 µM, first compound 1 µM) of the same compound?
Its viability, T/C is 93.5%.

And the viability, T/C (second compound 0.003 µM, first compound 0.00316 µM)?
Its viability, T/C is 94.8%.

And the viability, T/C (second compound 0.003 µM, first compound 0.01 µM)?
The viability, T/C was 83.5%.

What about the viability, T/C (second compound 0.003 µM, first compound 0.0316 µM) of the same compound?
The viability, T/C was 92.7%.

What about the viability, T/C (second compound 0.003 µM, first compound 0.1 µM) of the same compound?
Its viability, T/C is 86.9%.

And the viability, T/C (second compound 0.003 µM, first compound 0.316 µM)?
Its viability, T/C is 86.5%.

And the viability, T/C (second compound 0.003 µM, first compound 1 µM)?
Its viability, T/C is 84.2%.

What about the viability, T/C (second compound 0.00949 µM, first compound 0.00316 µM) of the same compound?
The viability, T/C was 87%.

And the viability, T/C (second compound 0.00949 µM, first compound 0.01 µM)?
Its viability, T/C is 79.5%.

And the viability, T/C (second compound 0.00949 µM, first compound 0.0316 µM)?
Its viability, T/C is 78.8%.

And the viability, T/C (second compound 0.00949 µM, first compound 0.1 µM)?
Its viability, T/C is 70.4%.

And the viability, T/C (second compound 0.00949 µM, first compound 0.316 µM)?
Its viability, T/C is 85%.

And the viability, T/C (second compound 0.00949 µM, first compound 1 µM)?
Its viability, T/C is 65.9%.

And the viability, T/C (second compound 0.03 µM, first compound 0.00316 µM)?
Its viability, T/C is 63.6%.

And the viability, T/C (second compound 0.03 µM, first compound 0.01 µM)?
The viability, T/C was 68.7%.

And the viability, T/C (second compound 0.03 µM, first compound 0.0316 µM)?
The viability, T/C was 62.2%.

And the viability, T/C (second compound 0.03 µM, first compound 0.1 µM)?
Its viability, T/C is 62.3%.

And the viability, T/C (second compound 0.03 µM, first compound 0.316 µM)?
The viability, T/C was 63.3%.

And the viability, T/C (second compound 0.03 µM, first compound 1 µM)?
The viability, T/C was 62%.

And the viability, T/C (second compound 0.0949 µM, first compound 0.00316 µM)?
The viability, T/C was 43.2%.

And the viability, T/C (second compound 0.0949 µM, first compound 0.01 µM)?
Its viability, T/C is 39.9%.

What about the viability, T/C (second compound 0.0949 µM, first compound 0.0316 µM) of the same compound?
Its viability, T/C is 43.1%.

And the viability, T/C (second compound 0.0949 µM, first compound 0.1 µM)?
The viability, T/C was 49.5%.

What about the viability, T/C (second compound 0.0949 µM, first compound 0.316 µM) of the same compound?
Its viability, T/C is 52.8%.

And the viability, T/C (second compound 0.0949 µM, first compound 1 µM)?
The viability, T/C was 45.6%.

And the viability, T/C (second compound 0.3 µM, first compound 0.00316 µM)?
Its viability, T/C is 33.2%.

And the viability, T/C (second compound 0.3 µM, first compound 0.01 µM)?
The viability, T/C was 31%.

What about the viability, T/C (second compound 0.3 µM, first compound 0.0316 µM) of the same compound?
The viability, T/C was 30.9%.

What about the viability, T/C (second compound 0.3 µM, first compound 0.1 µM) of the same compound?
The viability, T/C was 34.9%.

And the viability, T/C (second compound 0.3 µM, first compound 0.316 µM)?
Its viability, T/C is 38%.

And the viability, T/C (second compound 0.3 µM, first compound 1 µM)?
The viability, T/C was 32%.

CCN1CCN(Cc2ccc(Nc3ncc(F)c(-c4cc(F)c5nc(C)n(C(C)C)c5c4)n3)nc2)CC1 + C#Cc1c(F)ccc2cc(O)cc(-c3ncc4c(N5CC6CCC(C5)N6)nc(OCC56CCCN5CC(F)C6)nc4c3F)c12 was tested. Which IC50 (curve of first compound, second compound 0.0316 µM) did it give?
Its IC50 is over 1000 nM.

What about the IC50 (curve of first compound, second compound 0.1 µM) of the same compound?
The IC50 was over 1000 nM.

And the IC50 (curve of first compound, second compound 0.316 µM)?
The IC50 was over 1000 nM.

And the IC50 (curve of first compound, second compound 1 µM)?
The IC50 was over 1000 nM.

What about the IC50 (curve of first compound, second compound 3.16 µM) of the same compound?
Its IC50 is over 1000 nM.

And the IC50 (curve of first compound, second compound 10 µM)?
The IC50 was 208 nM.

And the viability, T/C (second compound 0.0316 µM, first compound 0.00316 µM)?
Its viability, T/C is 106%.

And the viability, T/C (second compound 0.0316 µM, first compound 0.01 µM)?
The viability, T/C was 106%.

And the viability, T/C (second compound 0.0316 µM, first compound 0.0316 µM)?
Its viability, T/C is 106%.

What about the viability, T/C (second compound 0.0316 µM, first compound 0.1 µM) of the same compound?
Its viability, T/C is 103%.

What about the viability, T/C (second compound 0.0316 µM, first compound 0.316 µM) of the same compound?
Its viability, T/C is 92.3%.

What about the viability, T/C (second compound 0.0316 µM, first compound 1 µM) of the same compound?
The viability, T/C was 103%.

What about the viability, T/C (second compound 0.1 µM, first compound 0.00316 µM) of the same compound?
The viability, T/C was 110%.

What about the viability, T/C (second compound 0.1 µM, first compound 0.01 µM) of the same compound?
Its viability, T/C is 100%.

And the viability, T/C (second compound 0.1 µM, first compound 0.0316 µM)?
The viability, T/C was 94.8%.

What about the viability, T/C (second compound 0.1 µM, first compound 0.1 µM) of the same compound?
The viability, T/C was 89.2%.

What about the viability, T/C (second compound 0.1 µM, first compound 0.316 µM) of the same compound?
Its viability, T/C is 91.6%.

What about the viability, T/C (second compound 0.1 µM, first compound 1 µM) of the same compound?
The viability, T/C was 99.5%.

What about the viability, T/C (second compound 0.316 µM, first compound 0.00316 µM) of the same compound?
Its viability, T/C is 100%.

What about the viability, T/C (second compound 0.316 µM, first compound 0.01 µM) of the same compound?
Its viability, T/C is 99.2%.

And the viability, T/C (second compound 0.316 µM, first compound 0.0316 µM)?
Its viability, T/C is 81.1%.

And the viability, T/C (second compound 0.316 µM, first compound 0.1 µM)?
The viability, T/C was 88%.

And the viability, T/C (second compound 0.316 µM, first compound 0.316 µM)?
The viability, T/C was 93.3%.

And the viability, T/C (second compound 0.316 µM, first compound 1 µM)?
The viability, T/C was 77.4%.

And the viability, T/C (second compound 1 µM, first compound 0.00316 µM)?
The viability, T/C was 92.5%.

And the viability, T/C (second compound 1 µM, first compound 0.01 µM)?
Its viability, T/C is 96.3%.

And the viability, T/C (second compound 1 µM, first compound 0.0316 µM)?
Its viability, T/C is 73.2%.

And the viability, T/C (second compound 1 µM, first compound 0.1 µM)?
The viability, T/C was 82.5%.

And the viability, T/C (second compound 1 µM, first compound 0.316 µM)?
The viability, T/C was 85.6%.

And the viability, T/C (second compound 1 µM, first compound 1 µM)?
The viability, T/C was 61.6%.

What about the viability, T/C (second compound 3.16 µM, first compound 0.00316 µM) of the same compound?
Its viability, T/C is 78.3%.

What about the viability, T/C (second compound 3.16 µM, first compound 0.01 µM) of the same compound?
The viability, T/C was 73.9%.

And the viability, T/C (second compound 3.16 µM, first compound 0.0316 µM)?
Its viability, T/C is 76.3%.

And the viability, T/C (second compound 3.16 µM, first compound 0.1 µM)?
The viability, T/C was 74.3%.

What about the viability, T/C (second compound 3.16 µM, first compound 0.316 µM) of the same compound?
Its viability, T/C is 71%.

And the viability, T/C (second compound 3.16 µM, first compound 1 µM)?
Its viability, T/C is 54.9%.

And the viability, T/C (second compound 10 µM, first compound 0.00316 µM)?
The viability, T/C was 76.8%.

What about the viability, T/C (second compound 10 µM, first compound 0.01 µM) of the same compound?
The viability, T/C was 67.8%.

What about the viability, T/C (second compound 10 µM, first compound 0.0316 µM) of the same compound?
Its viability, T/C is 72.7%.

And the viability, T/C (second compound 10 µM, first compound 0.1 µM)?
Its viability, T/C is 57.7%.

And the viability, T/C (second compound 10 µM, first compound 0.316 µM)?
The viability, T/C was 45.5%.

And the viability, T/C (second compound 10 µM, first compound 1 µM)?
The viability, T/C was 37.4%.

Which viability, T/C (compound 0.00316 µM) does the source give for CCN1CCN(Cc2ccc(Nc3ncc(F)c(-c4cc(F)c5nc(C)n(C(C)C)c5c4)n3)nc2)CC1 here?
The viability, T/C was 99% and 107% and 91.4%.

And the viability, T/C (compound 0.01 µM)?
The viability, T/C was 103% and 96.9% and 102%.

And the viability, T/C (compound 0.0316 µM)?
Its viability, T/C is 100% and 93.8% and 103%.

What about the viability, T/C (compound 0.1 µM) of the same compound?
The viability, T/C was 97.8% and 98.6% and 93.7%.

And the viability, T/C (compound 0.316 µM)?
Its viability, T/C is 83.3% and 90.2% and 96.2%.

And the viability, T/C (compound 1 µM)?
The viability, T/C was 91.3% and 82.5% and 92.3%.

What about the IC50 (curve of compound) of the same compound?
Its IC50 is over 1000 nM.

From PubChem BioAssay AID2060907 (Molecular Pharmacology Branch, DTP, NCI, 2025)
